# Test results reported in patent publication US9040547B2, “Pyrrolopyrimidine and purine derivatives” (PFIZER INC., priority 2011, dated 2015).
# Experiments:
# Assay type in all cases: cell-based
# NIH3T3/EGFR L858R+T790M = test: Cell proliferation assay (CellTiter-Glo), NIH3T3/EGFR L858R+T790M; conditions: Mus musculus, NIH3T3, 120 h, 3T3 cell line, three to five days of compound treatment, read-out: 3T3 L858R_T790M IC50
# [1] = biological target: T1, EGFR L858R+T790M, endogenous (Homo sapiens, UniProt P00533, L858R/T790M); test: pEGFR Y1068 ELISA assay, NCI-H1975 cells; conditions: value marked (H1975): NCI-H1975 cells, 2 hrs compound treatment; read-out: pEGFRY1068 ELISA3T3T790M—L858R IC50 (nM), (H1975);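 note: sandwich ELISA of endogenous phospho-EGFR (Tyr1068) in lysates of treated cells, 11-point 1:3 serial dilution tested in duplicate per plate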
# T1 construct: NCI-H1975 (EGFR L858R+T790M, endogenous); host or cells: NCI-H1975
# PC9-DRH = test: Cell proliferation assay (CellTiter-Glo), PC9-DRH; conditions: value marked (PC9-DRH), read-out: 3T3 del_T790M IC50, (PC9-DRH)
# Protocol: (§1) Cell proliferation was measured using the CellTiter-Glo® Luminescent Cell Viability Assay. The assay involves the addition of a single reagent (CellTiter-Glo® Reagent) directly to cells cultured in serum-supplemented medium. The assay uses this one-step addition to induce cell lysis and generate a luminescent signal proportional to the amount of ATP present which is directly proportional to the number of metabolically active cells present in culture. The following cell lines were evaluated in this assay: NIH3T3/EGFR_L858R, NIH3T3/EGFR_E746-A750_deletion, NIH3T3/EGFR L858R+T790M, NIH3T3/EGFR_E746-A750_deletion+T790M, PC-9, PC9-DRH, NCI-H1975, and NCI-H3255. NIH/3T3 parental cells, NCI-H1975, and NCI-H3255 were purchased from the American Type Culture Collection (Manassas, Va.), and PC-9 cells were obtained from Japan. All cells were cultured according to recommendations. NIH/3T3 cells were grown in DMEM (Invitrogen, Carlsbad, Calif.) supplemented with 10% newborn calf serum (Invitrogen), and NIH3T3/EGFR mutant cells were grown in complete media with 5 μg/mL puromycin (Invitrogen). PC-9, NCI-H1975, and NCI-H3255 were grown in RPMI (Invitrogen, Carlsbad, Calif.) supplemented with 10% FBS (Sigma, St Louis, Mo.), and PC9-DRH cells were grown in complete media with 2 uM PF-00299804. Plasmids (pLPCX) with various EGFR constructs were made by GenScript (Piscataway, N.J.), and stable pools of NIH/3T3 cells expressing these constructs were made at Pfizer La Jolla. PC9-DRH cells were generated at Pfizer La Jolla by exposing cells to increasing concentrations of PF-00299804. Cells were plated in complete culture media (3000-5000 cells/well, 50 μl/well) on the bottom of white clear-bottom tissue culture treated microtiter plates (#3610, Corning Inc, Corning, N.Y.) and allowed to adhere overnight at 37° C., 5% CO2. The following day, compound dilution plates were prepared in 96 well clear V-bottom 0.5 mL polypropylene block plates (#3956, Corning, Inc). All cell lines were not evaluated for each compound. Each compound evaluated was prepared as a DMSO stock solution (10 mM). Compounds were tested in duplicate on each plate, with an 11-point serial dilution curve (1:3 dilution). Compound treatment (50 μl) was added from the compound dilution plate to the cell plate. The highest compound concentration was 1 or 10 μM (final), with a 0.3% final DMSO (#D-5879, Sigma, St Louis, Mo.) concentration. Plates were then incubated at 37° C., 5% CO2. After three to five days of compound treatment, CellTiter-Glo® Reagent (#G7573, Promega, Madison, Wis.) was prepared in one of two ways. If thawing a frozen aliquot of CellTiter-Glo® Reagent, the aliquot was thawed and equilibrated to room temperature prior to use while keeping it protected from light. Alternatively, new bottles of CellTiter-Glo® Buffer and CellTiter-Glo® Substrate were thawed and equilibrated to room temperature prior to use. CellTiter-Glo® Buffer (100 mL) was transferred into the amber bottle containing CellTiter-Glo® Substrate to reconstitute the lyophilized enzyme/substrate mixture, forming the CellTiter-Glo® Reagent. The reconstituted reagent was mixed by gently inverting the contents to obtain a homogeneous solution, and went into solution easily in less than one minute. Any unused reconstituted CellTiter-Glo® Reagent was immediately aliquoted and frozen at −20° C., protected from light. Cell plates were equilibrated at room temperature for approximately 30 minutes. An equivolume amount of CellTiter-Glo® Reagent (100 μL) was added to each well. Plates were mixed for two minutes on an orbital shaker to induce cell lysis, and then allowed to incubate at room temperature for 10 minutes to stabilize the luminescent signal. Luminescence was recorded using the PerkinElmer EnVision Excite Multilabel Reader used for endpoint reading for Luminescence detection (Waltham, Mass.). Data were analyzed using a four-parameter fit in Microsoft Excel. […]
# EGFR L858R, endogenous = biological target: T2, EGFR L858R, endogenous (Homo sapiens, UniProt P00533, L858R); test: pEGFR Y1068 ELISA assay, NCI-H3255 cells; conditions: value marked (H3255): NCI-H3255 cells, 2 hrs compound treatment; read-out: pEGFRY1068 ELISA3T3 L858R IC50 (nM), (H3255)
# T2 construct: NCI-H3255 (EGFR L858R, endogenous); endogenous in cells; host or cells: NCI-H3255
# NCI-H3255 = test: Cell proliferation assay (CellTiter-Glo), NCI-H3255; conditions: Homo sapiens, value marked (H3255), read-out: 3T3 L858R IC50, (H3255)
# Protocol: as §1
# PC-9 = test: Cell proliferation assay (CellTiter-Glo), PC-9; conditions: Homo sapiens, value marked (PC9), read-out: 3T3 del IC50, (PC9)
# Protocol: as §1
# [2] = biological target: T3, EGFR wildtype, endogenous (Homo sapiens, UniProt P00533); test: pEGFR Y1068 ELISA assay, A549 cells; conditions: full serum media, stimulated 10 min with EGF (40 ng/mL), read-out: pEGFRY1068 ELISAA549 IC50;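 note: sandwich ELISA of phospho-EGFR Tyr1068 in cell lysates, cells exposed to compound for 2 h before EGF stimulation, 11-point threefold dilution series run in duplicate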
# T3 construct: A549 (EGFR wildtype, endogenous); host or cells: A549
# EGFR Del (PC9) = biological target: T4, EGFR Del (PC9) (Homo sapiens, UniProt P00533, DEL746-750); test: EGFR ELISA, PC9 Del cells; conditions: read-out: EGFR_ELISA9E PC9 Del IC50;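 note: cellular EGFR autophosphorylation at Tyr1068 quantified by sandwich ELISA of cell lysates after 2 h compound exposure at 37 °C, 11-point threefold dilution series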
# T4 construct: endogenous in cells; host or cells: PC-9
# PC9RK = test: Cell proliferation assay (CellTiter-Glo), PC9RK; conditions: value marked (PC9RK), read-out: 3T3 del_T790M IC50, (PC9RK)
# Protocol: as §1, with “After three to five days of compound treatment, CellTiter-Glo® Reagent (#G7573, Promega, Madison, Wis.) was prepared in one of two ways. If thawing a frozen aliquot of CellTiter-Glo® Reagent, the aliquot was thawed and equilibrated to room temperature prior to use while keeping it protected from light. Alternatively, new bottles of CellTiter-Glo® Buffer and CellTiter-Glo® Substrate were thawed and equilibrated to room temperature prior to use. CellTiter-Glo® Buffer (100 mL) was transferred into the amber bottle containing CellTiter-Glo® Substrate to reconstitute the lyophilized enzyme/substrate mixture, forming the CellTiter-Glo® Reagent. The reconstituted reagent was mixed by gently inverting the contents to obtain a homogeneous solution, and went into solution easily in less than one minute. Any unused reconstituted CellTiter-Glo® Reagent was immediately aliquoted and frozen at −20° C., protected from light. Cell plates were equilibrated at room temperature for approximately 30 minutes. An equivolume amount of CellTiter-Glo® Reagent (100 μL) was added to each well. Plates were mixed for two minutes on an orbital shaker to induce cell lysis, and then allowed to incubate at room temperature for 10 minutes to stabilize the luminescent signal.” left out
# NCI-H1975 = test: Cell proliferation assay (CellTiter-Glo), NCI-H1975; conditions: Homo sapiens, value marked (H1975), read-out: 3T3 L858R_T790M IC50, (H1975)
# Protocol: as §1
# EGFR L858R = EGFR L858R (Homo sapiens, UniProt P00533, L858R); test: pEGFR Y1068 ELISA assay, NIH3T3/EGFR_L858R cells; conditions: 3T3 cell line, 2 hrs compound treatment; read-out: pEGFRY1068 ELISA3T3 L858R IC50;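 note: sandwich ELISA of phospho-EGFR Tyr1068 in lysates of stably transfected NIH/3T3 pools after 2 h compound exposure at 37 °C, 11-point threefold dilution series run in duplicate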
# EGFR E746-A750 deletion = EGFR E746-A750 deletion (Homo sapiens, UniProt P00533, DEL746-750); test: pEGFR Y1068 ELISA assay, NIH3T3/EGFR_E746-A750 deletion cells; conditions: 3T3 Del cells, 2 hrs compound treatment; read-out: ELISA7E 3T3 Del IC50;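 note: sandwich ELISA on cell lysates detecting phospho-EGFR at Tyr1068, compounds run as 11-point threefold dilution series in duplicate, IC50 from inhibition of this phosphorylation signal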
# EGFR L858R+T790M = EGFR L858R+T790M (Homo sapiens, UniProt P00533, L858R/T790M); test: pEGFR Y1068 ELISA assay, NIH3T3/EGFR_L858R+T790M cells; conditions: 3T3 cell line, 2 hrs compound treatment; read-out: pEGFRY1068 ELISA3T3T790M—L858R IC50;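 note: sandwich ELISA of EGFR phosphorylated at Tyr1068 in lysates of stably transfected NIH/3T3 cells, 11-point threefold dilution series run in duplicate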
# T3 sequence (P00533 25-1210): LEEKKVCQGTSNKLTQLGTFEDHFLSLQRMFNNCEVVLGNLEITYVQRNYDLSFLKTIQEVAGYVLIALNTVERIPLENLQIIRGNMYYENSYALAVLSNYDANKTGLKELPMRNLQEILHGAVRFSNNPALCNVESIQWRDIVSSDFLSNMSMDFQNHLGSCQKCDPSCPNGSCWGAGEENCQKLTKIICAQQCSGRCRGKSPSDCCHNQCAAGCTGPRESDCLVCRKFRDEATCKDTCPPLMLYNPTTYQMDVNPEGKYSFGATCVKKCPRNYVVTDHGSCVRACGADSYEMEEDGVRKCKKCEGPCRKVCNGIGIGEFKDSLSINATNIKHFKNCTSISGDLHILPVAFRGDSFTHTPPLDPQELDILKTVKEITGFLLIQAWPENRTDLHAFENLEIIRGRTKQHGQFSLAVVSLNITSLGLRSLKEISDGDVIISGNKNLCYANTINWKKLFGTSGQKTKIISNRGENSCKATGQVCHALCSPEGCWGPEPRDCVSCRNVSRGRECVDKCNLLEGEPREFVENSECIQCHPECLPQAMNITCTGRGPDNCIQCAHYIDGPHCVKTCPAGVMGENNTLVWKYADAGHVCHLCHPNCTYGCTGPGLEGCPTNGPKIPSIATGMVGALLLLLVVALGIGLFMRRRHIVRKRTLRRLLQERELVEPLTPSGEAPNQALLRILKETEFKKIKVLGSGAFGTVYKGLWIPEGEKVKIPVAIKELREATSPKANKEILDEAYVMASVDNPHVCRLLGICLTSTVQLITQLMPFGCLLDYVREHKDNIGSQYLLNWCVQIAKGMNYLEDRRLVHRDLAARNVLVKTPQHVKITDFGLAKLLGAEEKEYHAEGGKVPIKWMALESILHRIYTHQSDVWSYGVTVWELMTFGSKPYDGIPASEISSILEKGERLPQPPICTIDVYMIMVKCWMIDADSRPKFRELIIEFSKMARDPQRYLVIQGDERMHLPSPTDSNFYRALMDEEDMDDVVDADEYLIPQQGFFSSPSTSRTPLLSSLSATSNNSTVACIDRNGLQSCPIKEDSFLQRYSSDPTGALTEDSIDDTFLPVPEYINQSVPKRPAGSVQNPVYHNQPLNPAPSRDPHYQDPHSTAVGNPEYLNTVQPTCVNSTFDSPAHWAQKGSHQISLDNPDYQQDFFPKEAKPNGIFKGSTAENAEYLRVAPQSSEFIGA
# Chain of EGFR L858R (P00533 25-1210 L858R): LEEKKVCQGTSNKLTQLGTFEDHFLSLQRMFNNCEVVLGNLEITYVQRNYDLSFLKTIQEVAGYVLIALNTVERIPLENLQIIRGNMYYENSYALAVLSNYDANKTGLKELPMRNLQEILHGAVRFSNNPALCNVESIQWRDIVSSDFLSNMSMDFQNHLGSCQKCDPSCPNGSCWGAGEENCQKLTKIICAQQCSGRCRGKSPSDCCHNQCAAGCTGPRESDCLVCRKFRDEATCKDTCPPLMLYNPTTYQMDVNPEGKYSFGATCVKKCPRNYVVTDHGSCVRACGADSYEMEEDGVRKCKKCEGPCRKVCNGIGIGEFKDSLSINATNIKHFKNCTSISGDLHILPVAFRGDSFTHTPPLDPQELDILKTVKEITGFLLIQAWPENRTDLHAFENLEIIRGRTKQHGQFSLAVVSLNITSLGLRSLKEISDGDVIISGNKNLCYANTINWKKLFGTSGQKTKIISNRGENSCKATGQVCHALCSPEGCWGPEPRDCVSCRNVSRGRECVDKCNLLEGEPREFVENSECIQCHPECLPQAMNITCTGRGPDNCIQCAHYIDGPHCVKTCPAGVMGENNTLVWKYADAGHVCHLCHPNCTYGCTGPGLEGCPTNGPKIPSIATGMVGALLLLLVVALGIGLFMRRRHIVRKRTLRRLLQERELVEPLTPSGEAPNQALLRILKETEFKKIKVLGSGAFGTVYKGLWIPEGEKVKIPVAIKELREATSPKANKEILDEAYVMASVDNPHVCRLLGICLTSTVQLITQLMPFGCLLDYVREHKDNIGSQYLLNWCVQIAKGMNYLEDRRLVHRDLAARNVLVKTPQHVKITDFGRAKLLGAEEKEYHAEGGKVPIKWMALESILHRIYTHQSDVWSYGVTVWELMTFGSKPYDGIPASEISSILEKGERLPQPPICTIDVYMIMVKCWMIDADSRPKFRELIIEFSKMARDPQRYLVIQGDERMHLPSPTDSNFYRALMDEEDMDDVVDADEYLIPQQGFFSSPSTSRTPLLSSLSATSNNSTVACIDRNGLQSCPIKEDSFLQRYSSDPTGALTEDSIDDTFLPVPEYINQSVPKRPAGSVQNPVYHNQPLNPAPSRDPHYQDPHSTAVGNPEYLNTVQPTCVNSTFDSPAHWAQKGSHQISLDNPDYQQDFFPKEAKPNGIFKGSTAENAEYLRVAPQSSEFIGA
# T2 sequence (P00533 25-1210 L858R): as above
# T4 sequence (P00533 with tags, fused parts or gaps DEL746-750): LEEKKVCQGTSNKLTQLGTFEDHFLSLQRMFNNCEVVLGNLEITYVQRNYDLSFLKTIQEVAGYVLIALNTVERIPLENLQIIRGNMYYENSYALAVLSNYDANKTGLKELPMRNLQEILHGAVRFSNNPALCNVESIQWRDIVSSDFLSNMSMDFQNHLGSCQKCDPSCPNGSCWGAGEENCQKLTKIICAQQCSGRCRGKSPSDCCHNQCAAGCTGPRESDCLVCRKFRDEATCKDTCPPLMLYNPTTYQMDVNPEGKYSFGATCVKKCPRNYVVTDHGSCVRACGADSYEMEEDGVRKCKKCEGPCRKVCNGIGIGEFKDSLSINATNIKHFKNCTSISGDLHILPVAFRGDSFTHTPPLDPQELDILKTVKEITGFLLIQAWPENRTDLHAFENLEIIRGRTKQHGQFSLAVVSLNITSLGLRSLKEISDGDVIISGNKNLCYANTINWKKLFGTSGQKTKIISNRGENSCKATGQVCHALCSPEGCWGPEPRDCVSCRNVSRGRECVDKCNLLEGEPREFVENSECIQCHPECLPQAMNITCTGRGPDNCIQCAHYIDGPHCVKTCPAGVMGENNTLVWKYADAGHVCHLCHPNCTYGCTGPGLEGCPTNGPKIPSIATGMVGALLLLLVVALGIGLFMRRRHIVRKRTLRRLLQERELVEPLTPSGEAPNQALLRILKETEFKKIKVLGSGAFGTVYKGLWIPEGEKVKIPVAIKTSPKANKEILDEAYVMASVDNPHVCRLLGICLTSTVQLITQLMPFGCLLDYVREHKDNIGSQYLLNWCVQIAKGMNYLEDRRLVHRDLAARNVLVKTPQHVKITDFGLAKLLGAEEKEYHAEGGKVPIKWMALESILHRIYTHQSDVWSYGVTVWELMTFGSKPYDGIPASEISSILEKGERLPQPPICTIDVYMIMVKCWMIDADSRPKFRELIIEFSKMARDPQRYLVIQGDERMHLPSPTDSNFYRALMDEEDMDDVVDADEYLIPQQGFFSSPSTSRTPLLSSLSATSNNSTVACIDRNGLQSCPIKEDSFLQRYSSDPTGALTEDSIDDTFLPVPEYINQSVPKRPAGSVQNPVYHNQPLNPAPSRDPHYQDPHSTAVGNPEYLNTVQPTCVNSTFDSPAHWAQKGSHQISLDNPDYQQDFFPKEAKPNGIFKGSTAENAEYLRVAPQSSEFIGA
Compound,IC50 (NIH3T3/EGFR L858R+T790M) [nM],IC50 [1] [nM],IC50 (PC9-DRH) [nM],"IC50 (EGFR L858R, endogenous) [nM]",IC50 (NCI-H3255) [nM],IC50 (PC-9) [nM],IC50 [2] [nM],IC50 (EGFR Del (PC9)) [nM],IC50 (PC9RK) [nM],IC50 (NCI-H1975) [nM],IC50 (EGFR L858R) [nM],IC50 (EGFR E746-A750 deletion) [nM],IC50 (EGFR L858R+T790M) [nM]
"C=CC(=O)N1C[C@@H](F)[C@H](Nc2nc(Nc3cnn(C)c3)nc3[nH]cc(Cl)c23)C1 (single isomer, unassigned) [Example 83]",10 to 100,5,10 to 100,31,10 to 100,100 to 1000,450,87,,,,,
C=CC(=O)N1C[C@H](Nc2nc(Nc3cnn(C)c3)nc3[nH]cc(Cl)c23)[C@@H](C(F)(F)F)C1 [Example 87],100 to 1000,14,100 to 1000,43,10 to 100,> 1000,948,48,,,,,
C=CC(=O)N1CC[C@@H](Nc2nc(Nc3cnn(C)c3)nc3[nH]cc(Cl)c23)C1 [Example 96],10 to 100,15,10 to 100,101,100 to 1000,100 to 1000,2180,342,,,,,
C=CC(=O)N1C[C@H](COc2nc(Nc3cnn(CCO)c3)nc3[nH]cc(Cl)c23)[C@@H](OC)C1 [Example 101],,48,,,100 to 1000,> 1000,> 10000,6540,100 to 1000,> 1000,1010,,
C=CC(=O)N1C[C@H](COc2nc(Nc3cnn([C@H]4CCOC4)c3)nc3[nH]cc(Cl)c23)[C@@H](OC)C1 [Example 102],,,,,100 to 1000,100 to 1000,4960,,100 to 1000,100 to 1000,297,709,21
C=CC(=O)N[C@H]1C[C@@H](Oc2nc(Nc3cnn(C)c3)nc3[nH]cc(-c4cccnc4)c23)C1 [Example 109],,,,,100 to 1000,10 to 100,5540,29,100 to 1000,100 to 1000,271,32,153
C=CC(=O)N1C[C@H](COc2nc(Nc3cnn(C)c3)nc3[nH]cc(Cl)c23)[C@@H](C(F)(F)F)C1 [Example 110],,,,,100 to 1000,100 to 1000,,,,> 1000,,,
C=CC(=O)N1C[C@H](COc2nc(Nc3ccn(C)n3)nc3[nH]cc(Cl)c23)[C@@H](OC)C1 [Example 111],,,,,100 to 1000,100 to 1000,> 10000,,,> 1000,352,886,14
C=CC(=O)N[C@]1(C)C[C@H](Oc2nc(Nc3cnn(C)c3)nc3[nH]cc(Cl)c23)C1 [Example 114],,39,,667,10 to 100,100 to 1000,> 10000,1200,100 to 1000,100 to 1000,,,
